Laboratory results published in PubChem BioAssay AID330 (DTP/NCI, 2004).
Where “and” joins values, the source holds several entries; their conditions need not be identical. Equal values may be shown once. Toxic doses and inconclusive results are not listed.

System: P388 leukemia ip, CD2F1 mice, survival T/C
Assay: NCI In Vivo Anticancer Drug Screen. Data for tumor model P388 Leukemia (intraperitoneal) in CD2F1 (CDF1) mice
Details: endpoint: median survival time, higher = longer survival
In short: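 Mice carrying the transplanted tumor received test compound or vehicle. Survival was recorded in each group, and the value is the treated-group measurement divided by that of the vehicle-treated control group.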

[1] = dose: 50.0 mg/kg/injection, schedule: Q01DX005 (ip), vehicle: saline with Tween-80
[2] = dose: 100.0 mg/kg/injection, schedule: Q01DX005 (ip), vehicle: saline with Tween-80
[3] = dose: 200.0 mg/kg/injection, schedule: Q01DX005 (ip), vehicle: saline with Tween-80
[4] = dose: 50.0 mg/kg/injection, schedule: Q01DX009 (ip), vehicle: saline
[5] = dose: 100.0 mg/kg/injection, schedule: Q01DX009 (ip), vehicle: saline
[6] = dose: 200.0 mg/kg/injection, schedule: Q01DX009 (ip), vehicle: saline
[7] = dose: 50.0 mg/kg/injection, schedule: Q01DX005 (ip), vehicle: Klucel (hydroxypropylcellulose) (HPC)
[8] = dose: 100.0 mg/kg/injection, schedule: Q01DX005 (ip), vehicle: Klucel (hydroxypropylcellulose) (HPC)
[9] = dose: 200.0 mg/kg/injection, schedule: Q01DX005 (ip), vehicle: Klucel (hydroxypropylcellulose) (HPC)

O=C(O)c1ccccc1Nc1cccc(C(F)(F)F)c1
T/C (dose: 12.5 mg/kg/injection, schedule: Q01DX009 (ip), vehicle: saline with Tween-80): 103 % of control | T/C (dose: 25.0 mg/kg/injection, schedule: Q01DX009 (ip), vehicle: saline with Tween-80): 98 % of control | T/C (dose: 50.0 mg/kg/injection, schedule: Q01DX009 (ip), vehicle: saline with Tween-80): 97 % of control | T/C (dose: 100.0 mg/kg/injection, schedule: Q01DX009 (ip), vehicle: saline with Tween-80): 107 % of control

CCOC(=O)CCCCCCN(/C=C(\C)CN1c2c(nc(N)[nH]c2=O)NCC1CNc1ccc(C(=O)NC(CCC(=O)O)C(=O)O)cc1)C(C)=O (stereo not given)
T/C (dose: 50.0 mg/kg/injection, schedule: Q04DX003 (ip), vehicle: saline): 97 % of control | T/C (dose: 100.0 mg/kg/injection, schedule: Q04DX003 (ip), vehicle: saline): 99 % of control | T/C (dose: 200.0 mg/kg/injection, schedule: Q04DX003 (ip), vehicle: saline): 98 % of control

COc1c2occc2c(OC(C)C(=O)O)c2c(O)cc(=O)oc12 (stereo not given)
T/C [1]: 95 % of control | T/C [2]: 101 % of control | T/C [3]: 95 % of control

CC(=O)OCC1OC(Oc2ccc(C=C(C(C)=O)C(C)=O)cc2)C(OC(C)=O)C(OC(C)=O)C1OC(C)=O (stereo not given)
T/C [1]: 105 % of control | T/C [2]: 101 % of control | T/C [3]: 104 % of control

CC(C)OC(=O)Nc1ccc2nc(-c3cscn3)[nH]c2c1
T/C [1]: 110 % of control | T/C [2]: 114 % of control and 121 % of control | T/C [3]: 151 % of control | T/C (dose: 400.0 mg/kg/injection, schedule: Q01DX005 (ip), vehicle: saline with Tween-80): 180 % of control

CC(=O)NC(CCc1ccc(Cl)c(Cl)c1)c1cccc(O)c(=O)c1 (stereo not given)
T/C (dose: 12.5 mg/kg/injection, schedule: Q01DX009 (ip), vehicle: Klucel (hydroxypropylcellulose) (HPC)): 105 % of control and 110 % of control | T/C (dose: 25.0 mg/kg/injection, schedule: Q01DX009 (ip), vehicle: Klucel (hydroxypropylcellulose) (HPC)): 106 % of control and 122 % of control

CN1CCN(CCCN(c2cccc(C(F)(F)F)c2)c2cccc(C(F)(F)F)c2)CC1
T/C (dose: 50.0 mg/kg/injection, schedule: Q01DX001 (ip), vehicle: Klucel (hydroxypropylcellulose) (HPC)): 100 % of control | T/C (dose: 100.0 mg/kg/injection, schedule: Q01DX001 (ip), vehicle: Klucel (hydroxypropylcellulose) (HPC)): 98 % of control | T/C (dose: 200.0 mg/kg/injection, schedule: Q01DX001 (ip), vehicle: Klucel (hydroxypropylcellulose) (HPC)): 92 % of control

O=C1/C(=C/c2ccccn2)CCc2ccccc21
T/C [4]: 102 % of control | T/C [5]: 101 % of control | T/C [6]: 99 % of control

Cc1[nH]nc2c1NC(=O)OCC2
T/C [1]: 101 % of control | T/C [2]: 101 % of control | T/C [3]: 101 % of control

Nc1ccccc1Cl
T/C (dose: 31.25 mg/kg/injection, schedule: Q01DX009 (ip), vehicle: saline with Tween-80): 95 % of control | T/C (dose: 62.5 mg/kg/injection, schedule: Q01DX009 (ip), vehicle: saline with Tween-80): 109 % of control | T/C (dose: 125.0 mg/kg/injection, schedule: Q01DX009 (ip), vehicle: saline with Tween-80): 100 % of control

OCC1OC(OC2C3CSC(O3)C(O)C2O)C(O)C(O)C1O (stereo not given)
T/C [4]: 105 % of control | T/C [5]: 106 % of control | T/C [6]: 106 % of control

COc1cc2c(c3c1c(=O)c1cc(F)ccc1n3C)C=CC(C)(C)O2
T/C [7]: 103 % of control | T/C [8]: 100 % of control and 104 % of control | T/C [9]: 105 % of control and 98 % of control

C/C1=C/CCC(C)c2cc(OC(=O)c3ccccc3)c(C)cc2C1 (stereo not given)
T/C (dose: 25.0 mg/kg/injection, schedule: Q01DX005 (ip), vehicle: Klucel (hydroxypropylcellulose) (HPC)): 104 % of control | T/C [7]: 99 % of control | T/C (dose: 70.0 mg/kg/injection, schedule: Q01DX005 (ip), vehicle: Klucel (hydroxypropylcellulose) (HPC)): 90 % of control | T/C [8]: 107 % of control | T/C (dose: 140.0 mg/kg/injection, schedule: Q01DX005 (ip), vehicle: Klucel (hydroxypropylcellulose) (HPC)): 95 % of control | T/C [9]: 95 % of control | T/C (dose: 280.0 mg/kg/injection, schedule: Q01DX005 (ip), vehicle: Klucel (hydroxypropylcellulose) (HPC)): 90 % of control | T/C (dose: 560.0 mg/kg/injection, schedule: Q01DX005 (ip), vehicle: Klucel (hydroxypropylcellulose) (HPC)): 90 % of control
